As usually defined, the IC50 is the midpoint of a concentration-inhibition curve. A lower IC50 goes with inhibition by little substance. The term AUC denotes the area under the concentration-time curve, a measure of exposure.

Where two headings read alike, the source gives them in different places.

The values that follow come from US7601732B2, “Crystalline form of 5(S)-(2-hydroxyethoxy)-20(S)-camptothecin” (Dr. Reddy's Laboratories Limited, priority 2006, dated 2009).

One data set deals with T1, Topoisomerase I (Homo sapiens, UniProt P11387).
T1 construct: purchased Topogen, Inc., Port Orange, Fla
T1 sequence (P11387 1-765): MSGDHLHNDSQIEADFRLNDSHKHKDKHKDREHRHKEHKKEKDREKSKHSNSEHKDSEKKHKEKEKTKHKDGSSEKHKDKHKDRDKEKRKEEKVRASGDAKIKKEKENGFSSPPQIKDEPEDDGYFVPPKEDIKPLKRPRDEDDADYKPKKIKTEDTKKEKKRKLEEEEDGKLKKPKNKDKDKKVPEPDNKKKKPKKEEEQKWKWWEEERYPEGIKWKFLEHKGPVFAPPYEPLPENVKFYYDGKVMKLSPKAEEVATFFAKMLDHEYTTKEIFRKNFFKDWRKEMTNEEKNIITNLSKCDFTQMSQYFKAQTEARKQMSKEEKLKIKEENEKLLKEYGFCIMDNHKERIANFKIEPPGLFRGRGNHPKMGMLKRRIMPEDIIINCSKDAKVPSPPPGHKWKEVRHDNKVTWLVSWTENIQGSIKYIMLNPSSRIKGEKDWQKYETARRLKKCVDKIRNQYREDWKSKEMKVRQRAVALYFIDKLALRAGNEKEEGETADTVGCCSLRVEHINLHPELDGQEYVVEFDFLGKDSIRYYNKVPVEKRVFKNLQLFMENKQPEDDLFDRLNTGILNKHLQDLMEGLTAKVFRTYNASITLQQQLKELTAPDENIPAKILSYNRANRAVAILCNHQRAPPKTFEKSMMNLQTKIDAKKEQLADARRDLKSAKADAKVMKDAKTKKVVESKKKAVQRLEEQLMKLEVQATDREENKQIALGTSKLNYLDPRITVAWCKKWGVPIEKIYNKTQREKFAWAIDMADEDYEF
Description: Topoisomerase I assay (TopoGEN Topo I Drug Screening Kit). Type of data set: biochemical. An excerpt:
Topoisomerase I introduces transient nicks in DNA at specific sites. Detection of these transient DNA nicks requires trapping the enzyme on DNA in a nicked intermediate complex using protein denaturants. The resulting covalent DNA/topo I complexes contain nicked open circular DNA which can be detected by agarose gel electrophoresis (with ethidium bromide). Trapping nicked intermediates is relatively inefficient, however, inhibitors, such as the natural product camptothecin, stabilize the intermediate and lead to an increase in the nicked DNA product. This forms the basis for a mechanistic drug screen designed to allow detection of agents that affect topoisomerase I by stabilizing the cleaved intermediate complex.
The TopoGEN® Topo I Drug Screening Kit (Topogen, Inc., Port Orange, Fla.) is designed to allow the investigator to quickly identify novel inhibitors of topoisomerase I. The kit allows the detection of novel compounds that either stabilize the nicked intermediate or otherwise inhibit catalytic activity of topoisomerase I.
The above reaction mixture is incubated at 37° C. for 30 minutes. The reaction is terminated by adding 2 μl of 10% SDS and the mixture is vortexed rapidly (SDS should be added while at 37° C. as cooling the tubes might reseal the nicked DNA). 10× Dye, about 2.5 μl per tube, is added and equal volumes of a mixture of chloroform and isoamyl alcohol (24:1) is added and centrifuged at 13000 rpm for 10 minutes. Samples are loaded on a 1% agarose gel and electrophoresed for 1 hour at 80 volts. The gel was viewed on UV transilluminator and the densitometric estimation of the bands was calculated.
The density of the DNA bands of both super coiled and relaxed forms of DNA was measured using the densitometer. The band intensity of treated (with single concentration of the test drug) and without the drug (i.e., the Control) were recorded. The percentage of relaxed form DNA compared to the supercoiled DNA was calculated for all the lanes including treated and control.
% inhibition of Topoisomerase activity was calculated as: =(100−(100×(1/% inhibition in Control)×% inhibition in treated))

The subject of data set [1] is NCI-H460 (human small cell lung carcinoma) xenografts. As to the kind of experiment: NCI-H460 xenograft study in nude mice. Type of data set: in vivo. The note with it: oral, (d×5)2 schedule. As to the method: Percentage tumor growth inhibition was calculated using the formula: Percentage Tumor growth inhibition=100−% T/C.
The other parameter observed was mortality.

Data set [2] is described as follows: in vivo. More on the design: species or system male Wistar rats. The note with it: male, Wistar, rat, po, 5 mg/kg. As to the method:
5(S)-CPT (2.5 mg/kg) and 5(RS)-CPT (5 mg/kg, including 2.5 mg/kg of 5(S)-CPT in the mixture) were been administered to male Wistar Rats to evaluate oral pharmacokinetics.
(§1) Male Wistar rats, 6-8 weeks of age and weighing between 205 and 218 g were divided into groups of four rats. The oral pharmacokinetics test was carried out in overnight fasted condition and intravenous pharmacokinetics was carried out in fed condition. The test drugs were administered as a solution by oral gavage or lateral tail vein injection. Sparse blood samples of about 250 microliters were collected from retro-orbital plexus at designated time points into microcentrifuge tubes containing 25 microliters of EDTA. Plasma was separated by centrifuging blood at 12,800 rpm for 2 min and refrigerated until analysis.
(§2) Samples were tested for the presence of the test drug as follows. An aliquot of 100 μl plasma (stored at 8° C.) was precipitated with 400 μl of cold methanol for the estimation of total (lactone+carboxylate). […] Concentrations of the test drug were calculated from the linearity plotted by spiking known concentrations of the test drug in blank rat plasma. The pharmacokinetics of the test drug was calculated using non-compartmental analysis.

Data set [3] is described as follows: in vivo. The arrangement: species or system Swiss Albino mice. The note with it: Swiss Albino, mouse, po, 5 mg/kg. As to the method:
5(S)-CPT (2.5 mg/kg) and 5(RS)-CPT (5 mg/kg, including 2.5 mg/kg of 5(S)-CPT in the mixture) were been administered to Swiss Albino mice to evaluate oral pharmacokinetics.
as §1, with “Swiss Albino mice, 3-6” for “Male Wistar rats, 6-8”, “28-34” for “205 and 218”, “used in the study. Twelve mice were used per study.” for “divided into groups of four rats.”
as §2

Data set [4] relates to Human bone marrow mononuclear cells. As to the kind of experiment: Human bone marrow assay (CFU-GM colony inhibition). Type of data set: cell-based. The method, then:
Methocult™ GF (Cat No: H4534, Poietics, Biowhittakar, USA) medium comprising Methycellulose in Iscove's MDM, Fetal bovine serum, Bovine serum albumin, 2-Mercaptoethanol, L-Glutamine, rhStem cell factor, rhGM-CSF and rhIL-3 was used for the assay. Human bone marrow mononuclear cells (Cat No. 2M-125C, Poietics, Biowhittakar, USA) were mixed with Methocult™ GF and the cell density was adjusted to 3×10^5 cells/ml. From this preparation, 500 μL aliquots were made and 2.5 μL of 20× drug solution or vehicle was added to each aliquot and mixed thoroughly. 100 μL of clonogenic medium was plated into each well and the plates were allowed to gel at 4° C. for 15 minutes. Plates were incubated at 37° C. in a fully humidified atmosphere of 5% CO2 in an incubator for 14 days. CFU-GM colonies were counted under an inverted microscope as aggregates of 50 cells or more. The percentage colony inhibition was calculated using the following formula: 100−[(number of colonies in drug treated wells/Number of colonies in control wells)×100].

The subject of data set [5] is Saos-2 cells over expressing functional BCRP#4. Type of data set: cell-based, human. As to the method: (§3) The anticancer effect of 5(S)-CPT & 5(R)-CPT were evaluated versus the diastereoisomeric mixture 5(RS)-CPT on Saos-2 cells over expressing functional BCRP#4 and non-functional BCRP mut#10. The human osteosarcoma cell line, Saos-2, was obtained from ATCC (American Type Culture Collection, Cat#HTB-85, Manassas, Va.) and were maintained in DMEM containing 10% fetal bovine serum, 1% penicillin/streptomycin, and 2 mM glutamine. Saos-2 cells were transfected with either BCRP#4 to over express functional BCRP or BCRP#10 to over express non-functional BCRP transporter. The cells were plated in 96-well plates at a density of 1000 cells per each well in a 0.1 ml of medium and allowed to attach overnight. The next morning the medium was gently aspirated and serial dilutions of the compounds to be tested were added. The cells were incubated at 37° C. in a 5% CO2 incubator. After 6 days of exposure to the test drugs, 10 μl of Alamar blue was added aseptically to each well and the plates were returned to the incubator for 6 hr. The amount of the fluorescent dye produced was measured on a Cytofluor 2300(Millipore, Bedford, Mass.) using an excitation wavelength of 530 nm and emission wavelength of 590 nm. The relative fluorescence units obtained were used to calculate the percentage growth at each concentration in relation to the untreated control values. […]

Data set [6] concerns Saos-2 cells over expressing non-functional BCRP mut#10. Type of data set: cell-based, human. As to the method:
as §3

The format of data set [7] is physicochemical. The settings on record: accelerated stability 40° C.±2° C./75% RH±5% RH for 6 months. As to the method: The water content of crystalline 5(S)-CPT was measured by Mettler® DL 31 KF apparatus by using Karl Fischer reagent. A weighed quantity of crystalline 5(S)-CPT was transferred into a titration vessel of a Karl Fischer apparatus containing about 40 ml of previously neutralized methanol. The sample was dissolved with stirring, and was titrated with Karl Fisher Reagent to the end point under vigorous stirring. Water content was calculated as: […]
The product is stable in 6 months accelerated conditions.
In one embodiment, 5(S)-CPT is isolated in crystalline form, which exists substantially free from water (i.e., essentially anhydrous). The term “substantially free from water” means the presence of less than about 1.0% water w/w and even specifically less than about 0.5% water w/w as measured by Karl Fisher analysis or TGA. […] The product is stable for 6 months under accelerated stability testing conditions of 40° C.±2° C./75% RH±5% RH and stable for 24 months under long term stability testing conditions at 30° C.±2° C./65%±5% RH.

With `CC[C@@]1(O)C(=O)OCc2c1cc1n(c2=O)C(OCCO)c2cc3ccccc3nc2-1` (mixture of isomers) [5(RS)-CPT, 5(RS)-(2′-hydroxyethoxy)-20(S)-camptothecin, reference compound], it took 12.5 µM to reach half-maximal inhibition against Topoisomerase I (IC50). Also, the “% Tumor Growth Inhibition” value in data set [1] (2 mg/kg) is 60%. Moreover, the Mortality in data set [1] (2 mg/kg) and in data set [1] (4 mg/kg) was 0/5 each time. In addition, the AUC amounted to 5.08 µM·h in the data set “in vivo [2]” and 5.2 µM·h in “in vivo [3]”.
In the case of `CC[C@@]1(O)C(=O)OCc2c1cc1n(c2=O)[C@H](OCCO)c2cc3ccccc3nc2-1` [5(R)-CPT, 5(R)-(2′-hydroxyethoxy)-20(S)-camptothecin, reference compound], the half-inhibitory concentration (IC50) against Topoisomerase I was determined as 22 µM. For the same compound, in data set [4] (human, 14 days), the “GI90 for human bone marrow cells in vitro” value turned out to be 0.89 µM and the “Safety Margin (GI90/GI50)” value was 0.06.
As for `CC[C@@]1(O)C(=O)OCc2c1cc1n(c2=O)[C@@H](OCCO)c2cc3ccccc3nc2-1` [5(S)-CPT, 5(S)-(2′-hydroxyethoxy)-20(S)-camptothecin], the half-inhibitory concentration (IC50) against Topoisomerase I was determined as 1.06 µM. Besides, at Topoisomerase I (versus 5(R)-CPT), the “fold more active than 5(R)-CPT in inhibiting topoisomerase I” value is reported as “about 21 fold”. Also, the “times more active than 5(RS)-CPT in inhibiting topoisomerase I” value at Topoisomerase I (versus 5(RS)-CPT) is “about 12 times”. Further, the Mortality in data set [1] (2 mg/kg) and in data set [1] (4 mg/kg) was 0/5 in each case. Also, the “GI90 for human bone marrow cells in vitro” value in data set [4] (human, 14 days) was determined as 0.69 µM. The “Safety Margin (GI90/GI50)” value in data set [4] (ratio of GI90 for human cell toxicity to GI50 for anticancer activity) was found to be 0.14. For the same compound, the figures for the AUC in “in vivo [2]” and in “in vivo [3]” were 5.76 µM·h and 5.18 µM·h, respectively. Also, the “fold more cytotoxic than 5(R)-CPT” value is recorded as greater than 2.5 fold in data set [5] and roughly 6 fold in data set [6]. Further, the “change in water content (Karl Fisher analysis)” value is given as “no appreciable change” in data set [7] and “No change” in data set [7] (listed as crystalline 5(S)-CPT). Further, the hygroscopicity result in data set [7] was “non-hygroscopic”.
